The conditions of series [1]: snar bond, 15-membered ring.
Series [2] deals with CFTR-mediated chloride transport (Homo sapiens, UniProt P13569). It counts as cell-based. Conditions: enteroid cells incubated with test compound 18-24 hours, acute 10 μM forskolin and 300 nM Compound III; for Max. Activity: % of chloride transport with 3 μM Compound A, 3 μM Compound II and 300 nM acute Compound III triple combination control. Put shortly:
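Membrane-potential fluorescence AUC over 15 min quantified CFTR chloride transport after acute forskolin (10 μM), IBMX (100 μM) and Compound III (300 nM) in chloride-free buffer. Human enteroid cells were pretreated with compound for 18–24 h; % Activity is relative to 3 μM Compound A + 3 μM Compound II + 300 nM Compound III.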

For series [3] the following is noted: snar bond, DMSO.

This note sets out measurements from patent US11866450B2, “Modulators of Cystic Fibrosis Transmembrane Conductance regulator, pharmaceutical compositions, methods of treatment, and process for making the modulators” (priority 2018, dated 2024).

Where two headings read alike, the source gives them in different places.

Chain of CFTR-mediated chloride transport (P13569 whole entry, looked up): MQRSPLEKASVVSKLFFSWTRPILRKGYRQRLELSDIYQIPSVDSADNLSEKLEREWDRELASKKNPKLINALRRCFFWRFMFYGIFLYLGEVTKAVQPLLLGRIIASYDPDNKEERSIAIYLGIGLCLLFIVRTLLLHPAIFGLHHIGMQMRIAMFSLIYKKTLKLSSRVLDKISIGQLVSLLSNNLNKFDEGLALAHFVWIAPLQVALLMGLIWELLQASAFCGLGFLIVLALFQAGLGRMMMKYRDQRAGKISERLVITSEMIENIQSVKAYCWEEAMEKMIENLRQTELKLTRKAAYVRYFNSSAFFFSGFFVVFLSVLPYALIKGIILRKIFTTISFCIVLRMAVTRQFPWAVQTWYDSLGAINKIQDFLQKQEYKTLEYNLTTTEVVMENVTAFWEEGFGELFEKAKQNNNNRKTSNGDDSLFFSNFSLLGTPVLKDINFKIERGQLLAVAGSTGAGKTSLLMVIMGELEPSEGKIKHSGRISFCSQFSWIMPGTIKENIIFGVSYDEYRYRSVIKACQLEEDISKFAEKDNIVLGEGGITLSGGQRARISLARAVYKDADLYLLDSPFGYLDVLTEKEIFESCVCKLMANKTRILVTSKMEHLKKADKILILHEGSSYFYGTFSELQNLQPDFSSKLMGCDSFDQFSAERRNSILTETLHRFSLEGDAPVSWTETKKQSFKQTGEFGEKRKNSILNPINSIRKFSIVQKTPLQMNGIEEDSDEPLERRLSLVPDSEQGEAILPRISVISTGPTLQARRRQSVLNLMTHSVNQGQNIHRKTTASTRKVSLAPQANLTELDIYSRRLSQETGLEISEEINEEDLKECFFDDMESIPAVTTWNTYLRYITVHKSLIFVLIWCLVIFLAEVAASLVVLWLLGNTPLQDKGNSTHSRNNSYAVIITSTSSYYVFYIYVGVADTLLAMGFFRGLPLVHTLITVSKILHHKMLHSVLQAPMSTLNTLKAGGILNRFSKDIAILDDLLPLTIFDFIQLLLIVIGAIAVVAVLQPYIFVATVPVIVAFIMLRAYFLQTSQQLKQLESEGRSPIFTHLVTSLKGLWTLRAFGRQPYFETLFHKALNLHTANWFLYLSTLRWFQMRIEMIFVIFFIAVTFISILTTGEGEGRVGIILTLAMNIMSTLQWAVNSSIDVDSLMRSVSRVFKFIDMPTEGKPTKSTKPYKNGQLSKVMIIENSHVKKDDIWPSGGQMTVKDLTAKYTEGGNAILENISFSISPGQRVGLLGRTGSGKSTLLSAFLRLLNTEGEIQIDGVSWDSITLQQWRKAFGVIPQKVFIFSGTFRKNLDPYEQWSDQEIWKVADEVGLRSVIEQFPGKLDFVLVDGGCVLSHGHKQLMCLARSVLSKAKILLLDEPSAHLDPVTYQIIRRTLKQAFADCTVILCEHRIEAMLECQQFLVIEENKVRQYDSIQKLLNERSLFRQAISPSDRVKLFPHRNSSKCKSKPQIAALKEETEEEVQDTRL

On to `CC1(C)C[C@@H]2CCCNc3cccc(n3)S(=O)(=O)NC(=O)c3ccc(-n4ccc(OCC(O[Si](C)(C)C(C)(C)C)C5C6(CC6)C56CC6)n4)nc3N1C2` (stereo partly shown), for which the ring closure, isolated yield in series [1] (from CC1(C)C[C@H](CCCNc2cccc(S(=O)(=O)NC(=O)c3ccc(-n4ccc(OCC(O[Si](C)(C)C(C)(C)C)C5C6(CC6)C56CC6)n4)nc3Cl)n2)CN1, K2CO3/MS, DMSO, 9.9 mM, 140.0 °C, 12.0 h) is 55%.
Turning to `CC1(C)C[C@@H]2CCCNc3ccc(OCc4ccccc4)c(n3)S(=O)(=O)NC(=O)c3ccc(-n4ccc(OCCCC5(C(F)(F)F)CC5)n4)nc3N1C2`, the ring closure, isolated yield in series [1] (from N-[[3-benzyloxy-6-[3-[(3S)-5,5-dimethylpyrrolidin-3-yl]propylamino]-2-pyridyl]sulfonyl]-2-chloro-6-[3-[3-[1-(trifluoromethyl)cyclopropyl]propoxy]pyrazol-1-yl]pyridine-3-carboxamide (ditrifluoroacetate salt), K2CO3, NMP, 42.6 mM, 150.0 °C) turned out to be 39%.
Turning to `CC1CCC2CN(c3nc(Cl)ccc3C(=O)NS(=O)(=O)c3cccc(n3)N1)C(C)(C)C2` (stereo not shown), in series [1] (from CC(CCC1CN(C(=O)OC(C)(C)C)C(C)(C)C1)Nc1cccc(S(=O)(=O)NC(=O)c2ccc(Cl)nc2Cl)n1, K2CO3/CsF/3A MS, DMSO, 229.0 mM, 140.0 °C, 2 steps), the ring closure, isolated yield is 31%.
As for `[2H]C([2H])(COc1ccn(-c2ccc3c(n2)N2C[C@@H](CCCNc4nc(ccc4OCc4ccccc4)S(=O)(=O)NC3=O)CC2(C)C)n1)C1C2(CC2)C12CC2`, the ring closure, isolated yield in series [1] (from [2H]C([2H])(COc1ccn(-c2ccc(C(=O)NS(=O)(=O)c3ccc(OCc4ccccc4)c(NCCC[C@@H]4CN(C(=O)OC(C)(C)C)C(C)(C)C4)n3)c(Cl)n2)n1)C1C2(CC2)C12CC2, K2CO3/CsF/4A MS, DMSO, 51.0 mM, 150.0 °C, 2 steps) came out at 68%.
Broadly, the EC50 is the concentration at which the effect is half-maximal. On to `Cc1ccc2nc1OCCC[C@@H]1CN(c3nc(-n4ccc(OCCC5(C(F)(F)F)CC5)n4)ccc3C(=O)NS2(=O)=O)C(C)(C)C1` [Compound 109, (14S)-12,12,20-Trimethyl-8-(3-{2-[1-(trifluoromethyl)cyclopropyl]ethoxy}-1H-pyrazol-1-yl)-18-oxa-2λ^6-thia-3,9,11,23-tetraazatetracyclo[17.3.1.111,14.05,10]tetracosa-1(23),5(10),6,8,19,21-hexaene-2,2,4-trione], for which, in series [2], the EC50 is less than 1000 nM and the “Max. Activity” value is given as “++ (++ is 30-60%)”. The ring closure, yield after HPLC in series [3] (from Cc1ccc(S(=O)(=O)NC(=O)c2ccc(-n3ccc(OCCC4(C(F)(F)F)CC4)n3)nc2Cl)nc1OCCC[C@@H]1CN(C(=O)OC(C)(C)C)C(C)(C)C1, 15-membered ring, HCl (Boc off), K2CO3/CsF/3A MS, 62.8 mM, 140.0 °C, 2 steps) was found to be 32%.
Consider `CC1(C)C[C@@H]2CCCOc3cccc(c3)S(=O)(=O)NC(=O)c3ccc(-n4ccc(OCCC5(C(F)(F)F)CC5)n4)nc3N1C2` [Compound 77, (14S)-12,12-Dimethyl-8-(3-{2-[1-(trifluoromethyl)cyclopropyl]ethoxy}-1H-pyrazol-1-yl)-18-oxa-2λ^6-thia-3,9,11-triazatetracyclo[17.3.1.111,14.05,10]tetracosa-1(23),5(10),6,8,19,21-hexaene-2,2,4-trione], for which, in series [2], the EC50 was less than 1000 nM and the “Max. Activity” value is given as “+++ (+++ is >60%)”. Also, the ring closure, yield after HPLC in series [3] (from CC1(C)C[C@H](CCCOc2cccc(S(=O)(=O)NC(=O)c3ccc(-n4ccc(OCCC5(C(F)(F)F)CC5)n4)nc3Cl)c2)CN1, 15-membered ring, K2CO3/CsF/3A MS, 62.9 mM, 150.0 °C, 20.0 h, 2 steps) turned out to be 20%.
`Cc1nn2cc1S(=O)(=O)NC(=O)c1ccc(-n3ccc(OCC(C)(C)C(F)(F)F)n3)nc1N1CC(CCC2)CC1(C)C` (stereo not shown) [Compound 281, 12,20,20-trimethyl-4-[3-(3,3,3-trifluoro-2,2-dimethylpropoxy)-1H-pyrazol-1-yl]-10λ^6-thia-1,3,9,13,14-pentaazatetracyclo[16.2.1.111,14.02,7]docosa-2,4,6,11(22),12-pentaene-8,10,10-trione]: in series [2], the EC50 was in the range of 1000 to 3000 nM and the “Max. Activity” value was “+ (+ is <30%)”. The ring closure, yield after HPLC in series [3] (from Cc1nn(CCCC2CNC(C)(C)C2)cc1S(=O)(=O)NC(=O)c1ccc(-n2ccc(OCC(C)(C)C(F)(F)F)n2)nc1Cl, 14-membered ring, K2CO3/CsF/3A MS, 25.9 mM, 150.0 °C) turned out to be 17%.
`CC1(C)CC2CCCCc3cccc(n3)S(=O)(=O)NC(=O)c3ccc(-n4ccc(OCCC5(C(F)(F)F)CC5)n4)nc3N1C2` (stereo not shown) [Compound 78, 12,12-dimethyl-8-(3-{2-[1-(trifluoromethyl)cyclopropyl]ethoxy}-1H-pyrazol-1-yl)-2λ^6-thia-3,9,11,23-tetraazatetracyclo[17.3.1.111,14.05,10]tetracosa-1(23),5,7,9,19,21-hexaene-2,2,4-trione]: in series [2], the EC50 is less than 1000 nM and the “Max. Activity” value is on record as “+++ (+++ is >60%)”. This compound showed a ring closure, yield after HPLC in series [3] (from CC(C)(C)OC(=O)N1CC(CCCCc2cccc(S(=O)(=O)NC(=O)c3ccc(-n4ccc(OCCC5(C(F)(F)F)CC5)n4)nc3Cl)n2)CC1(C)C, 15-membered ring, HCl (Boc off), K2CO3/CsF/3A MS, 65.0 mM, 150.0 °C, 2 steps) of 37%.
As to `CC1(C)CC2CCCCNc3ccc(nc3)S(=O)(=O)NC(=O)c3ccc(-n4ccc(OCCC5(C(F)(F)F)CC5)n4)nc3N1C2` (stereo not shown) [Compound 123, 12,12-Dimethyl-8-(3-{2-[1-(trifluoromethyl)cyclopropyl]ethoxy}-1H-pyrazol-1-yl)-2λ^6-thia-3,9,11,19,22-pentaazatetracyclo[18.2.2.111,14.05,10]pentacosa-1(22),5(10),6,8,20,23-hexaene-2,2,4-trione], in series [2], the EC50 was less than 1000 nM and the “Max. Activity” value was “+++ (+++ is >60%)”. Moreover, the ring closure, yield after HPLC in series [3] (from CC(C)(C)OC(=O)N1CC(CCCCNc2ccc(S(=O)(=O)NC(=O)c3ccc(-n4ccc(OCCC5(C(F)(F)F)CC5)n4)nc3Cl)nc2)CC1(C)C, 17-membered ring, K2CO3/CsF/3A MS, 110.5 mM, 150.0 °C, 2 steps) was 4%.
Consider `CC1(C)C[C@@H]2CCCn3ccc(n3)S(=O)(=O)NC(=O)c3ccc(-n4ccc(OCCC(C)(C)C(F)(F)F)n4)nc3N1C2` [Compound 221, (18S)-20,20-Dimethyl-4-[3-(4,4,4-trifluoro-3,3-dimethylbutoxy)-1H-pyrazol-1-yl]-10λ^6-thia-1,3,9,14,22-pentaazatetracyclo[16.2.1.111,14.02,7]docosa-2,4,6,11(22),12-pentaene-8,10,10-trione], for which, in series [2], the EC50 is less than 1000 nM and the “Max. Activity” value is recorded as “+++ (+++ is >60%)”. This compound also gave a ring closure, yield after HPLC in series [3] (from CC(C)(C)OC(=O)N1C[C@@H](CCCn2ccc(S(=O)(=O)NC(=O)c3ccc(-n4ccc(OCCC(C)(C)C(F)(F)F)n4)nc3Cl)n2)CC1(C)C, 14-membered ring, K2CO3/CsF/3A MS, 22.0 mM, 130.0 °C, 2 steps) of 21%.
For the compound `CC1(C)CC2CCCCNc3cccc(n3)S(=O)(=O)NC(=O)c3ccc(-n4cc(OCCC5(C(F)(F)F)CC5)cn4)nc3N1C2` (racemic) [Compound 70, 12,12-Dimethyl-8-(4-{2-[1-(trifluoromethyl)cyclopropyl]ethoxy}-1H-pyrazol-1-yl)-2λ^6-thia-3,9,11,19,24-pentaazatetracyclo[18.3.1.111,14.05,10]pentacosa-1(23),5,7,9,20(24),21-hexaene-2,2,4-trione], in series [2], the EC50 was less than 1000 nM and the “Max. Activity” value is listed as “++ (++ is 30-60%)”. Besides, the ring closure, yield after HPLC in series [3] (from CC1(C)CC(CCCCNc2cccc(S(=O)(=O)NC(=O)c3ccc(-n4cc(OCCC5(C(F)(F)F)CC5)cn4)nc3Cl)n2)CN1, 16-membered ring, K2CO3/CsF/3A MS, 164.4 mM, 150.0 °C) amounted to 24%.
Regarding `CC1(C)CC2CCCNc3ccc(cn3)S(=O)(=O)NC(=O)c3ccc(-n4ccc(OCCC5(C(F)(F)F)CC5)n4)nc3N1C2` (racemic) [Compound 62, 12,12-Dimethyl-8-(3-{2-[1-(trifluoromethyl)cyclopropyl]ethoxy}-1H-pyrazol-1-yl)-2λ^6-thia-3,9,11,18,20-pentaazatetracyclo[17.2.2.111,14.05,10]tetracosa-1(22),5,7,9,19(23),20-hexaene-2,2,4-trione], in series [2], the EC50 is less than 1000 nM and the “Max. Activity” value was “+++ (+++ is >60%)”. Besides, the ring closure, yield after HPLC in series [3] (from CC1(C)CC(CCCNc2ccc(S(=O)(=O)NC(=O)c3ccc(-n4ccc(OCCC5(C(F)(F)F)CC5)n4)nc3Cl)cn2)CN1, 16-membered ring, K2CO3/CsF/3A MS, 37.3 mM, 165.0 °C, 19.0 h) amounted to 6%.
As for `CC1(C)CC2CN1c1nc(-n3ccc(OCCC4(C(F)(F)F)CC4)n3)ccc1C(=O)NS(=O)(=O)c1cccc(n1)N2` (stereo not shown) [Compound 31, 5,5-dimethyl-9-(3-{2-[1-(trifluoromethyl)cyclopropyl]ethoxy}-1H-pyrazol-1-yl)-15λ^6-thia-2,6,8,14,20-pentaazatetracyclo[14.3.1.13,6.07,12]henicosa-1(20),7,9,11,16,18-hexaene-13,15,15-trione], in series [2], the EC50 is more than 3000 nM and the “Max. Activity” value is recorded as “+ (+ is <30%)”. For the same compound, in series [3] (from 2-chloro-N-[[6-[(5,5-dimethylpyrrolidin-3-yl)amino]-2-pyridyl]sulfonyl]-6-[3-[2-[1-(trifluoromethyl)cyclopropyl]ethoxy]pyrazol-1-yl]pyridine-3-carboxamide (dihydrochloride salt), 12-membered ring, K2CO3/CsF/4A MS, 10.5 mM, 150.0 °C), the ring closure, yield after HPLC was 37%.
With `CC1(C)C[C@H]2CCCNc3cccc(n3)S(=O)(=O)NC(=O)c3ccc(-n4ccc(OCCCC5(C(F)(F)F)CC5)n4)nc3N1C2` [Compound 190, (14R)-12,12-dimethyl-8-(3-{3-[1-(trifluoromethyl)cyclopropyl]propoxy}-1H-pyrazol-1-yl)-2λ^6-thia-3,9,11,18,23-pentaazatetracyclo[17.3.1.111,14.05,10]tetracosa-1(23),5,7,9,19,21-hexaene-2,2,4-trione], in series [2], the EC50 was less than 1000 nM and the “Max. Activity” value is recorded as “++ (++ is 30-60%)”. The same compound gave a ring closure, yield after HPLC in series [3] (from CC1(C)CC(CCCNc2cccc(S(=O)(=O)NC(=O)c3ccc(-n4ccc(OCCCC5(C(F)(F)F)CC5)n4)nc3Cl)n2)CN1, 15-membered ring, K2CO3/CsF/4A MS, 102.3 mM, 150.0 °C, 2 steps) of 49%.
